From patent publication US20240279176A1, “SUBSTITUTED TRICYCLIC HETEROCYCLIC COMPOUNDS AS METALLO-BETA-LACTAMASE INHIBITORS” (priority 2021, published 2024)
Where two headings read alike, the source gives them in different places.

How the values were obtained:
IMP-1 = IMP-1 (Serratia marcescens, UniProt P52699); assay: Enzyme activity: IC50 in fluorescence assay with cephalosporin substrate FC5; assay type: biochemical; details: 100 pM IMP-1, 10 μM FC5, 10 min pre-incubation
NDM-1 = NDM-1 (Klebsiella pneumoniae, UniProt C7C422); assay: as above; assay type: biochemical; details: 50 pM NDM-1, 1.5 μM FC5, 10 min pre-incubation
NDM-1, sequence (C7C422 29-270, looked up): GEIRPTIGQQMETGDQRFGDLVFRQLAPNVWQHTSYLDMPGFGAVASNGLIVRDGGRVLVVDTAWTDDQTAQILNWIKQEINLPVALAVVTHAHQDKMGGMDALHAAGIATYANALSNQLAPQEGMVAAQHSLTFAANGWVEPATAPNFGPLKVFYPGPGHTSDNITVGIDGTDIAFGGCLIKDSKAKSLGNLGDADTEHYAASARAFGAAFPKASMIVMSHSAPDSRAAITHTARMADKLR

[1] = test system: Klebsiella pneumoniae ATCC BAA-2146; assay: Minimum inhibitory concentration (MIC), broth-microdilution (CLSI); assay type: cell-based; details: ATCCBAA2146, compound alone, K. pneumoniae ATCC BAA-2146, read-out: Intrinsic MIC
[2] = test system: Klebsiella pneumoniae ATCC BAA-2146; assay: Checkerboard synergy assay in combination with Imipenem; assay type: cell-based; details: K. pneumoniae ATCC BAA-2146; for Fold reduction in Imipenem MIC in the presence of compounds (μg/mL) 4: compound at 4 μg/mL; for Fold reduction in Imipenem MIC in the presence of compounds (μg/mL) 8: compound at 8 μg/mL; for Fold reduction in Imipenem MIC in the presence of compounds (μg/mL) 16: compound at 16 μg/mL; for Fold reduction in Imipenem MIC in the presence of compounds (μg/mL) 32: compound at 32 μg/mL
[3] = test system: Klebsiella pneumoniae ATCC BAA-2146; assay: Checkerboard synergy assay in combination with Meropenem; assay type: cell-based; details: K. pneumoniae ATCC BAA-2146; for Fold reduction in meropenem MIC in the presence of compounds (μg/mL) 4: compound at 4 μg/mL; for Fold reduction in meropenem MIC in the presence of compounds (μg/mL) 8: compound at 8 μg/mL; for Fold reduction in meropenem MIC in the presence of compounds (μg/mL) 16: compound at 16 μg/mL; for Fold reduction in meropenem MIC in the presence of compounds (μg/mL) 32: compound at 32 μg/mL

IMP-1, sequence (P52699 19-246, looked up, species assumed): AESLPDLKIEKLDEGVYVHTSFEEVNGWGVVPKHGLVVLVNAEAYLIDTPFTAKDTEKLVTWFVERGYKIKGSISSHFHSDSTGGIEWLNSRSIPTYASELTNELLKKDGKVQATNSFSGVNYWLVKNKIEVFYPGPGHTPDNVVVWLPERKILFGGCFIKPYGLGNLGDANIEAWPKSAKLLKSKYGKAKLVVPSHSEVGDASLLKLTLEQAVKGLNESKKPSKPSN

Compound	IC50 (IMP-1)	IC50 (NDM-1)	MIC ([1]; Imipenem series)	MIC ([1]; meropenem series)	Fold reduction in Imipenem MIC in the presence of compounds (μg/mL) 4 [2]	Fold reduction in Imipenem MIC in the presence of compounds (μg/mL) 8 [2]	Fold reduction in Imipenem MIC in the presence of compounds (μg/mL) 16 [2]	Fold reduction in Imipenem MIC in the presence of compounds (μg/mL) 32 [2]	Fold reduction in meropenem MIC in the presence of compounds (μg/mL) 4 [3]	Fold reduction in meropenem MIC in the presence of compounds (μg/mL) 8 [3]	Fold reduction in meropenem MIC in the presence of compounds (μg/mL) 16 [3]	Fold reduction in meropenem MIC in the presence of compounds (μg/mL) 32 [3]
COc1ccccc1-c1c(C(=O)O)[nH]c2c1CCc1ccccc1-2 [Example 35, 3-(2-methoxyphenyl)-4,5-dihydro-1H-benzo[g]indole-2-carboxylic Acid]	1.81 µM	0.248 µM	> 128 µg/mL	> 128 µg/mL	2 fold	4 fold	4 fold	8 fold	4 fold	4 fold	8 fold	8 fold
O=C(O)c1[nH]c2c(c1-c1cncc(F)c1)CCc1ccccc1-2 [Example 53, 3-(5-fluoropyridin-3-yl)-4,5-dihydro-1H-benzo[g]indole-2-carboxylic Acid]	3.74 µM	0.334 µM	> 128 µg/mL	> 128 µg/mL	4 fold	4 fold	4 fold	8 fold		2 fold	4 fold	4 fold
O=C(O)c1[nH]c2c(c1-c1ccc(Cl)cc1)CCc1ccccc1-2 [Example 43, 3-(4-chlorophenyl)-4,5-dihydro-1H-benzo[g]indole-2-carboxylic Acid]	1.48 µM	0.007 µM	> 128 µg/mL	> 128 µg/mL	4 fold	4 fold	4 fold	8 fold	4 fold	4 fold	4 fold	4 fold
O=C(O)c1[nH]c2c(c1-c1cccc(F)c1)CCc1ccccc1-2 [Example 42, 3-(3-Fluorophenyl)-4,5-dihydro-1H-benzo[g]indole-2-carboxylic Acid]	1.15 µM	0.079 µM	> 128 µg/mL	> 128 µg/mL	4 fold	4 fold	8 fold	8 fold	4 fold	4 fold	4 fold	8 fold
COc1cc(F)ccc1-c1c(C(=O)O)[nH]c2c1CCc1ccccc1-2 [Example 56, 3-(4-fluoro-2-methoxyphenyl)-4,5-dihydro-1H-benzo[g]indole-2-carboxylic Acid]	2.67 µM	0.143 µM	> 128 µg/mL	> 128 µg/mL				2 fold	4 fold	4 fold	4 fold	8 fold
COc1cc(Cl)cc(-c2c(C(=O)O)[nH]c3c2CCc2ccccc2-3)c1 [Example 59, 3-(3-chloro-5-methoxyphenyl)-4,5-dihydro-1H-benzo[g]indole-2-carboxylic Acid]	0.552 µM	0.015 µM	> 128 µg/mL	> 128 µg/mL	4 fold	4 fold	8 fold	16 fold	4 fold	8 fold	8 fold	16 fold
COc1ccc(Cl)cc1-c1c(C(=O)O)[nH]c2c1CCc1ccccc1-2 [Example 38, 3-(5-Chloro-2-methoxyphenyl)-4,5-dihydro-1H-benzo[g]indole-2-carboxylic Acid]	0.026 µM	0.026 µM	> 128 µg/mL	> 128 µg/mL	4 fold	4 fold	8 fold	8 fold	4 fold	4 fold	4 fold	8 fold
COc1ccc(F)cc1-c1c(C(=O)O)[nH]c2c1CCc1ccccc1-2 [Example 34, 3-(5-Fluoro-2-methoxyphenyl)-4,5-dihydro-1H-benzo[g]indole-2-carboxylic Acid]	0.096 µM	0.103 µM	> 128 µg/mL	> 128 µg/mL	4 fold	8 fold	8 fold	16 fold	4 fold	4 fold	4 fold	16 fold
O=C(O)c1[nH]c2c(c1-c1ccccc1Cl)CCc1ccccc1-2 [Example 44, 3-(2-chlorophenyl)-4,5-dihydro-1H-benzo[g]indole-2-carboxylic Acid]	1.1 µM	0.019 µM	> 128 µg/mL	> 128 µg/mL	4 fold	4 fold	4 fold	4 fold	4 fold	4 fold	4 fold	4 fold
